In brackets after ≈: the same amount, converted by molar mass. Activity calls are given as the source filed them. The rule behind the calls is not given here.
Legend:
[1] = test system: Aspergillus flavus; assay: Antifungal activity against Aspergillus flavus NCIM 535 at 1000 ug/disk after 72 hr by disk diffusion method; assay type: functional; settings: NCIM 535, 72 h, read-out: DIZ
[2] = test system: Bacillus subtilis; assay: Antibacterial activity against Bacillus subtilis NCIM 2063 after 24 hr by broth dilution assay; assay type: functional; settings: NCIM 2063, 24 h
[3] = test system: Klebsiella aerogenes; assay: Antibacterial activity against Enterobacter aerogenes NCIM 2239 after 24 hr by broth dilution assay; assay type: functional; settings: NCIM 2239, 24 h
[4] = test system: Penicillium chrysogenum; assay: Antifungal activity against Penicillium chrysogenum NCIM 707 at 500 ug/disk after 72 hr by disk diffusion method; assay type: functional
[5] = test system: Lipomyces lipofer; assay: Antifungal activity against Lipomyces lipofer NCIM 3252 at 500 ug/disk after 72 hr by disk diffusion method; assay type: functional; settings: for zone of inhibition at 500 µg/disc: NCIM 3252, 72 h, read-out: DIZ
[6] = test system: Rhodotorula mucilaginosa; assay: Antifungal activity against Rhodotorula mucilaginosa NCIM 3174 at 500 ug/disk after 72 hr by disk diffusion method; assay type: functional
[7] = test system: Escherichia coli; assay: Antibacterial activity against Escherichia coli NCIM 2065 after 24 hr by broth dilution assay; assay type: functional; settings: NCIM 2065, 24 h
[8] = test system: Klebsiella aerogenes; assay: Antibacterial activity against Enterobacter aerogenes NCIM 2239 at 500 ug/disk after 24 hr by disk diffusion method; assay type: functional; settings: for zone of inhibition at 500 µg/disc: NCIM 2239, 24 h, read-out: DIZ
[9] = test system: Aspergillus niger; assay: Antifungal activity against Aspergillus niger NCIM 1196 at 500 ug/disk after 72 hr by disk diffusion method; assay type: functional; settings: for zone of inhibition at 500 µg/disc: NCIM 1196, 72 h, read-out: DIZ
[10] = test system: Aspergillus niger; assay: Antifungal activity against Aspergillus niger NCIM 1196 after 72 hr by broth dilution assay; assay type: functional; settings: NCIM 1196, 72 h
[11] = test system: Bacillus subtilis; assay: Antibacterial activity against Bacillus subtilis NCIM 2063 at 1000 ug/disk after 24 hr by disk diffusion method; assay type: functional; settings: NCIM 2063, 24 h, read-out: DIZ
[12] = test system: Pseudomonas aeruginosa; assay: Antibacterial activity against Pseudomonas aeruginosa NCIM 2200 after 24 hr by broth dilution assay; assay type: functional; settings: NCIM 2200, 24 h
[13] = test system: Bacillus cereus; assay: Antibacterial activity against Bacillus cereus NCIM 2155 at 500 ug/disk after 24 hr by disk diffusion method; assay type: functional; settings: NCIM 2155, 24 h, read-out: DIZ
[14] = test system: Escherichia coli; assay: Antibacterial activity against Escherichia coli NCIM 2065 at 500 ug/disk after 24 hr by disk diffusion method; assay type: functional; settings: NCIM 2065, 24 h, read-out: DIZ
[15] = test system: Aspergillus niger; assay: Antifungal activity against Aspergillus niger NCIM 1196 at 1000 ug/disk after 72 hr by disk diffusion method; assay type: functional; settings: NCIM 1196, 72 h, read-out: DIZ
[16] = test system: Bacillus cereus; assay: Antibacterial activity against Bacillus cereus NCIM 2155 after 24 hr by broth dilution assay; assay type: functional; settings: NCIM 2155, 24 h
[17] = test system: Candida albicans; assay: Antifungal activity against Candida albicans NCIM 3471 at 500 ug/disk after 72 hr by disk diffusion method; assay type: functional
[18] = test system: Rhodotorula mucilaginosa; assay: Antifungal activity against Rhodotorula mucilaginosa NCIM 3174 at 1000 ug/disk after 72 hr by disk diffusion method; assay type: functional; settings: for zone of inhibition at 1000 µg/disc: NCIM 3174, 72 h, read-out: DIZ
[19] = test system: Bacillus cereus; assay: Antibacterial activity against Bacillus cereus NCIM 2155 at 1000 ug/disk after 24 hr by disk diffusion method; assay type: functional; settings: NCIM 2155, 24 h, read-out: DIZ
[20] = test system: Escherichia coli; assay: Antibacterial activity against Escherichia coli NCIM 2065 at 1000 ug/disk after 24 hr by disk diffusion method; assay type: functional; settings: NCIM 2065, 24 h, read-out: DIZ
[21] = test system: Bacillus subtilis; assay: Antibacterial activity against Bacillus subtilis NCIM 2063 at 500 ug/disk after 24 hr by disk diffusion method; assay type: functional
[22] = test system: Streptomyces albus; assay: Antibacterial activity against Streptomyces albus NCIM 2178 at 1000 ug/disk after 24 hr by disk diffusion method; assay type: functional
[23] = test system: Klebsiella aerogenes; assay: Antibacterial activity against Enterobacter aerogenes NCIM 2239 at 1000 ug/disk after 24 hr by disk diffusion method; assay type: functional; settings: NCIM 2239, 24 h, read-out: DIZ
[24] = test system: Penicillium chrysogenum; assay: Antifungal activity against Penicillium chrysogenum NCIM 707 at 1000 ug/disk after 72 hr by disk diffusion method; assay type: functional
[25] = test system: Lipomyces lipofer; assay: Antifungal activity against Lipomyces lipofer NCIM 3252 at 1000 ug/disk after 72 hr by disk diffusion method; assay type: functional; settings: for zone of inhibition at 1000 µg/disc: NCIM 3252, 72 h, read-out: DIZ
[26] = test system: Aspergillus flavus; assay: Antifungal activity against Aspergillus flavus NCIM 535 at 500 ug/disk after 72 hr by disk diffusion method; assay type: functional
[27] = test system: Streptomyces albus; assay: Antibacterial activity against Streptomyces albus NCIM 2178 at 500 ug/disk after 24 hr by disk diffusion method; assay type: functional, organism-based
[28] = test system: Candida albicans; assay: Antifungal activity against Candida albicans NCIM 3471 at 1000 ug/disk after 72 hr by disk diffusion method; assay type: functional
[29] = test system: Pseudomonas aeruginosa; assay: Antibacterial activity against Pseudomonas aeruginosa NCIM 2200 at 500 ug/disk after 24 hr by disk diffusion method; assay type: functional; settings: for zone of inhibition at 500 µg/disc: NCIM 2200, 24 h, read-out: DIZ
[30] = test system: Pseudomonas aeruginosa; assay: Antibacterial activity against Pseudomonas aeruginosa NCIM 2200 at 1000 ug/disk after 24 hr by disk diffusion method; assay type: functional; settings: NCIM 2200, 24 h, read-out: DIZ
[31] = test system: Lipomyces lipofer; assay: Antifungal activity against Lipomyces lipofer NCIM 3252 after 72 hr by broth dilution assay; assay type: functional; settings: NCIM 3252, 72 h

SMILES	zone of inhibition at 1000 µg/disc [1] [mm]	MIC [2] [µg/mL]	MIC [3] [µg/mL]	diameter of the inhibition zone (DIZ) [4]	diameter of the inhibition zone (DIZ) [6]	MIC [7] [µg/mL]	MIC [10] [µg/mL]	zone of inhibition at 1000 µg/disc [11] [mm]	MIC [12] [µg/mL]	zone of inhibition at 500 µg/disc [13] [mm]	zone of inhibition at 500 µg/disc [14] [mm]	zone of inhibition at 1000 µg/disc [15] [mm]	MIC [16] [µg/mL]	diameter of the inhibition zone (DIZ) [17]	zone of inhibition at 1000 µg/disc [19] [mm]	zone of inhibition at 1000 µg/disc [20] [mm]	zone of inhibition at 1000 µg/disc [23] [mm]	diameter of the inhibition zone (DIZ) [26]	diameter of the inhibition zone (DIZ) [27]	zone of inhibition at 1000 µg/disc [30] [mm]	also measured
O=c1[nH]c(=O)c2cc3cc(Br)ccc3nc2[nH]1	11	31.2 (≈ 107 µM)	62.5 (≈ 214 µM)	inactive	inactive	7.8 (≈ 26.7 µM)	62.5 (≈ 214 µM)	12	31.2 (≈ 107 µM)	8	7	12	62.5 (≈ 214 µM)	inactive	11	11	10	inactive	inactive	12	diameter of the inhibition zone (DIZ) [5]: inactive; diameter of the inhibition zone (DIZ) [8]: inactive; diameter of the inhibition zone (DIZ) [9]: inactive; diameter of the inhibition zone (DIZ) [18]: inactive; diameter of the inhibition zone (DIZ) [21]: inactive; diameter of the inhibition zone (DIZ) [22]: inactive; diameter of the inhibition zone (DIZ) [24]: inactive; diameter of the inhibition zone (DIZ) [25]: inactive; diameter of the inhibition zone (DIZ) [28]: inactive; zone of inhibition at 500 µg/disc [29]: 9 mm
O=c1[nH]c(=S)[nH]c2nc3ccc(Cl)cc3cc12	10	3.9 (≈ 14.8 µM)	31.2 (≈ 118 µM)	inactive	inactive	62.5 (≈ 237 µM)	3.9 (≈ 14.8 µM)	14	7.8 (≈ 29.6 µM)	9	8	14	62.5 (≈ 237 µM)	inactive	13	10	10	inactive	inactive	13	zone of inhibition at 500 µg/disc [5]: 9 mm; MIC [31]: 7.8 µg/mL (≈ 29.6 µM); zone of inhibition at 500 µg/disc [8]: 8 mm; zone of inhibition at 500 µg/disc [9]: 11 mm; zone of inhibition at 1000 µg/disc [18]: 12 mm; zone of inhibition at 500 µg/disc ([21]; NCIM 2063, 24 h, read-out: DIZ): 11 mm; diameter of the inhibition zone (DIZ) [22]: inactive; zone of inhibition at 1000 µg/disc ([24]; NCIM 707, 72 h, read-out: DIZ): 10 mm; zone of inhibition at 1000 µg/disc [25]: 15 mm; zone of inhibition at 1000 µg/disc ([28]; NCIM 3471, 72 h, read-out: DIZ): 11 mm; zone of inhibition at 500 µg/disc [29]: 10 mm
Cc1ccc2nc3[nH]c(=S)[nH]c(=O)c3cc2c1	8	31.2 (≈ 128 µM)	7.8 (≈ 32.1 µM)	inactive	inactive	31.2 (≈ 128 µM)	3.9 (≈ 16 µM)	12	62.5 (≈ 257 µM)	8	9	14	62.5 (≈ 257 µM)	inactive	10	11	13	inactive	inactive	12	zone of inhibition at 500 µg/disc [5]: 9 mm; MIC [31]: 62.5 µg/mL (≈ 257 µM); zone of inhibition at 500 µg/disc [8]: 9 mm; zone of inhibition at 500 µg/disc [9]: 11 mm; zone of inhibition at 1000 µg/disc [18]: 9 mm; diameter of the inhibition zone (DIZ) [21]: inactive; zone of inhibition at 1000 µg/disc ([22]; NCIM 2178, 24 h, read-out: DIZ): 9 mm; diameter of the inhibition zone (DIZ) [24]: inactive; zone of inhibition at 1000 µg/disc [25]: 10 mm; diameter of the inhibition zone (DIZ) [28]: inactive; diameter of the inhibition zone (DIZ) [29]: inactive

— ChEMBL document CHEMBL3045679, “Microwave-assisted synthesis and pharmacological studies of novel 5-deazaalloxazine derivatives” (2012)
